Key:
Type in all cases: biochemical
[1] = molecular target: T1, AChE (Electrophorus electricus) (Electrophorus electricus, UniProt O42275); experiment: AChE inhibition, Ellman's method
T1 construct: purchased Sigma-Aldrich (Steinheim, Germany)
Experimental: (§1) The assay was performed in two steps.
(§2) All enzymes were obtained from Sigma-Aldrich (Steinheim, Germany). Ellman’s reagent and the substrates were obtained from Fluka (Buchs, Switzerland). The chemicals used to prepare the buffer solution were purchased from Merck (Darmstadt, Germany).
(§3) The enzyme inhibitory activities of the synthesized compounds were investigated by applying Ellman’s method. Enzyme solutions were dissolved in gelatin solution (1%; 2.5 units/mL). […] Then, the reaction was initiated by the addition of Ellman’s reagent 5,5′-Dithiobis(2-nitrobenzoic acid) (DTNB; 20 µL/well, 10 mM) and the substrate (10 µL/well, 75 mM). […] The enzyme solution was processed as a control. All readings were adjusted with blank-reading. All assays were performed in four independent wells. […] Absorbance differences between the two readings were taken, and percentage inhibition rates were calculated according to the following formula: % Inhibition=[(A(C)−A(B))−(A(I)−A(B))]/(A(C)−A(B))×100.
(§4) • Blank (B): the well in which the inhibitor compound and substrate were not added; • Control (C): the well where the inhibitor compound was not added; • A(B): the difference in absorbance reading for the blank; • A(C): the difference in absorbance reading for the control; • A(I): the difference in absorbance reading for the inhibitor compounds.

AChE (Human) = molecular target: T2, AChE (Human) (Homo sapiens, UniProt P22303); experiment: AChE inhibition, Ellman's method
T2 construct: purchased Sigma-Aldrich (Steinheim, Germany)
Experimental: as §1, §2, §3, §4

BChE (Equine) = molecular target: T3, BChE (Equine) (Equus caballus, UniProt P81908); experiment: biochemical
T3 construct: purchased Sigma-Aldrich (Steinheim, Germany)
Experimental: as §1, §2, §3, §4

BChE (Human) = molecular target: T4, BChE (Human) (Homo sapiens, UniProt P06276); experiment: BChE inhibition, Ellman's method
T4 construct: purchased Sigma-Aldrich (Steinheim, Germany)
Experimental: as §1, §2, §3, §4

[2] = read-out: AChE (Electrophorus electricus) inhibitory activity (%) ± SD
[3] = read-out: AChE (Human) inhibitory activity (%) ± SD
[4] = read-out: BChE (Human) inhibitory activity (%) ± SD

T4 sequence (P06276 29-602): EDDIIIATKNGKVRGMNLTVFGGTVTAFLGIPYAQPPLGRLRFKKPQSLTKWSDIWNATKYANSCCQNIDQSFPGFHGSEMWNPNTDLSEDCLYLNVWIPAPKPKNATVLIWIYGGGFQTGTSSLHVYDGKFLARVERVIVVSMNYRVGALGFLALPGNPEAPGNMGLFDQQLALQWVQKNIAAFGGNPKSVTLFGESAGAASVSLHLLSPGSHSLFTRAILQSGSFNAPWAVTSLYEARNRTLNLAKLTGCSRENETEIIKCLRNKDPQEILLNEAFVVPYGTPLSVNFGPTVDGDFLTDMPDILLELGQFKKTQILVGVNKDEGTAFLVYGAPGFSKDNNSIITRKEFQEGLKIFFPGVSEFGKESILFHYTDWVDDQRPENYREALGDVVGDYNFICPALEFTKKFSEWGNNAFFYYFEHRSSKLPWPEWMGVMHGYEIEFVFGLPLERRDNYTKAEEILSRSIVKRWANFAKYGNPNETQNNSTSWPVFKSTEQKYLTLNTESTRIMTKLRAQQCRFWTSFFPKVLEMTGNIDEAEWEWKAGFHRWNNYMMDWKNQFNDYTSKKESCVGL
T3 sequence (P81908 whole entry): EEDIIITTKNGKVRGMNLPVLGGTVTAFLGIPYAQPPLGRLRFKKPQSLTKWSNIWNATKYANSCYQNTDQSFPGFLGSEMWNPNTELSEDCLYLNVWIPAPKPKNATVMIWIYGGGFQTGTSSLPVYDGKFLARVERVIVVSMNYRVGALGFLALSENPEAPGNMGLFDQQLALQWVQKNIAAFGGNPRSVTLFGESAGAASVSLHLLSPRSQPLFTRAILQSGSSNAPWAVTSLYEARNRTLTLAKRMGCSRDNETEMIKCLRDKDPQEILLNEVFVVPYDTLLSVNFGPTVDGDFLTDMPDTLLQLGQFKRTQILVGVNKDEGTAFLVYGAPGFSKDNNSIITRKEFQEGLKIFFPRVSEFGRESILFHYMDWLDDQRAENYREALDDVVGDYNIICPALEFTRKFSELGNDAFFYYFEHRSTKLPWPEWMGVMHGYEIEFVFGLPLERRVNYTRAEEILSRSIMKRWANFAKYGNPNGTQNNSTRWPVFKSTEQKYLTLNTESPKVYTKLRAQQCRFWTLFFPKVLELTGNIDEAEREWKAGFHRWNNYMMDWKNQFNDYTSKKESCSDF
T1 sequence (O42275 24-633): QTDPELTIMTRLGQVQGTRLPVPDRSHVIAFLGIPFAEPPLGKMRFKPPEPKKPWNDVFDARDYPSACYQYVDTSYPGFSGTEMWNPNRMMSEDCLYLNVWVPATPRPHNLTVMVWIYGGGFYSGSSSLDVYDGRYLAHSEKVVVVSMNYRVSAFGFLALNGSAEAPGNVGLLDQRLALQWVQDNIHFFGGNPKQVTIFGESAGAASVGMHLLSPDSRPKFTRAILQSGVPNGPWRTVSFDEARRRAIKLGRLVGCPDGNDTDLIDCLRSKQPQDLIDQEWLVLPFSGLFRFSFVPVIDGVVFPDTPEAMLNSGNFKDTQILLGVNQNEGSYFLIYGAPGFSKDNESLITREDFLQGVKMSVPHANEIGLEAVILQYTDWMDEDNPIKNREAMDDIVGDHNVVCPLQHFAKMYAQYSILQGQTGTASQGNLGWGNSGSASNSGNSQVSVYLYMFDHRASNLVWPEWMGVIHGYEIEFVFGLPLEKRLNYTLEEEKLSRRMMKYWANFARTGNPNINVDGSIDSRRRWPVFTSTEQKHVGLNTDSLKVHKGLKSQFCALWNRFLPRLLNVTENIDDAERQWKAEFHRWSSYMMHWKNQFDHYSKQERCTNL
T2 sequence (P22303 32-614): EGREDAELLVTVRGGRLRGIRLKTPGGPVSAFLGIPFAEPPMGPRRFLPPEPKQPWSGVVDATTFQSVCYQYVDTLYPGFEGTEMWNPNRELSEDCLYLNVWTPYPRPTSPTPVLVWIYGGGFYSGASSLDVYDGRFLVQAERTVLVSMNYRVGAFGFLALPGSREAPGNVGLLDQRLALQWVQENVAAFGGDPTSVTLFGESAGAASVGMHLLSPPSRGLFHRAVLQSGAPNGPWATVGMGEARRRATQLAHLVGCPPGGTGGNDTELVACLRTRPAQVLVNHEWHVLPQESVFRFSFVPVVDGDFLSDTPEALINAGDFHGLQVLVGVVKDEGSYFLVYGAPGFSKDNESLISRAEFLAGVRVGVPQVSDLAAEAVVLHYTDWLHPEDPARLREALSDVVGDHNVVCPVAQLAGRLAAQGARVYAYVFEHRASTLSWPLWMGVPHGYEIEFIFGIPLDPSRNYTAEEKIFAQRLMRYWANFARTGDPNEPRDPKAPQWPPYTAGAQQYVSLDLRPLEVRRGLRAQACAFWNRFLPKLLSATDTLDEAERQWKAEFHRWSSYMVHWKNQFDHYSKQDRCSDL

With `Nc1c2ccccc2nc2ccccc12` [Aminoacridine, 9-aminoacridine, reference compound] the inhibition at 0.001 µM [1, 2] was 16 ± 0.48%, the inhibition at 0.01 µM [1, 2] was 20.4 ± 0.55% and the inhibition at 0.1 µM [1, 2] was 31.6 ± 0.82%. For the same molecule, the inhibition at 1 µM [1, 2] was 41.7 ± 0.97%, the inhibition at 10 µM [1, 2] was 59 ± 1.05% and the inhibition at 100 µM [1, 2] was 75.2 ± 1.15%. It also gave an inhibition at 1000 µM [1, 2] of 85.2 ± 1.08%, an inhibition at 0.001 µM (AChE (Human); [3]) of 16.7 ± 0.37% and an inhibition at 0.01 µM (AChE (Human); [3]) of 21.6 ± 0.42%. For the same molecule, the inhibition at 0.1 µM (AChE (Human); [3]) was 35.8 ± 0.67%, the inhibition at 1 µM (AChE (Human); [3]) was 44.3 ± 0.74% and the inhibition at 10 µM (AChE (Human); [3]) was 55.3 ± 0.82%. It also gave an inhibition at 100 µM (AChE (Human); [3]) of 78.2 ± 0.89%, an inhibition at 1000 µM (AChE (Human); [3]) of 87.2 ± 0.97% and an IC50 (BChE (Equine)) of 233 ± 9 nM. It also gave an inhibition at 1000 µM (BChE (Equine); 10^-3 M, read-out: BChE (Equine) inhibitory activity (%) ± SD) of 91.2 ± 1.2%, an inhibition at 100 µM (BChE (Equine); 10^-4 M, read-out: BChE (Equine) inhibitory activity (%) ± SD) of 87.3 ± 1.07% and an inhibition at 10 µM (BChE (Equine); 10^-5 M, read-out: BChE (Equine) inhibitory activity (%) ± SD) of 71.5 ± 1.02%. For the same molecule, the inhibition at 1 µM (BChE (Equine); 10^-6 M, read-out: BChE (Equine) inhibitory activity (%) ± SD) was 56.3 ± 0.97%, the inhibition at 0.1 µM (BChE (Equine); 10^-7 M, read-out: BChE (Equine) inhibitory activity (%) ± SD) was 42.8 ± 0.63% and the inhibition at 0.01 µM (BChE (Equine); 10^-8 M, read-out: BChE (Equine) inhibitory activity (%) ± SD) was 30.1 ± 0.48%. For the same molecule, the inhibition at 0.001 µM (BChE (Equine); 10^-9 M, read-out: BChE (Equine) inhibitory activity (%) ± SD) was 24.9 ± 0.5%, the IC50 (BChE (Human)) was 221 ± 7 nM and the inhibition at 0.001 µM (BChE (Human); [4]) was 22.7 ± 0.48%. It also gave an inhibition at 0.01 µM (BChE (Human); [4]) of 31.9 ± 0.62%, an inhibition at 0.1 µM (BChE (Human); [4]) of 46.8 ± 0.7% and an inhibition at 1 µM (BChE (Human); [4]) of 53.3 ± 0.99%. It also gave an inhibition at 10 µM (BChE (Human); [4]) of 74.3 ± 1.08%, an inhibition at 100 µM (BChE (Human); [4]) of 86.1 ± 1.22% and an inhibition at 1000 µM (BChE (Human); [4]) of 90.4 ± 1.04%.

With `CCN1CCN(C(=S)SCC(=O)Nc2c3ccccc3nc3ccccc23)CC1` [Compound 4c, 2-(9-Acridinylamino)-2-oxoethyl 4-ethylpiperazine-1-carbodithioate] the “AChE (Electrophorus electricus) inhibitory activity (%) ± SD” value ([1]; 10^-3 M) was 50.73±2.21%, the “AChE (Electrophorus electricus) inhibitory activity (%) ± SD” value ([1]; 10^-4 M) was 5.11 ± 0.09% and the “AChE (Human) inhibitory activity (%) ± SD” value (AChE (Human); 10^-3 M) was 51.25±1.45%. For the same molecule, the “AChE (Human) inhibitory activity (%) ± SD” value (AChE (Human); 10^-4 M) was 10.28 ± 0.22%, the “BChE (Equine) inhibitory activity (%) ± SD” value (BChE (Equine); 10^-3 M) was 45.18±0.94% and the “BChE (Equine) inhibitory activity (%) ± SD” value (BChE (Equine); 10^-4 M) was 22.70 ± 0.70%. For the same molecule, the “BChE (Human) inhibitory activity (%) ± SD” value (BChE (Human); 10^-3 M) was 50.23±0.88% and the “BChE (Human) inhibitory activity (%) ± SD” value (BChE (Human); 10^-4 M) was 20.55 ± 0.61%.

For `O=C(CSC(=S)N1CCOCC1)Nc1c2ccccc2nc2ccccc12` [Compound 4r, 2-(9-Acridinylamino)-2-oxoethyl morpholine-4-carbodithioate], the “AChE (Electrophorus electricus) inhibitory activity (%) ± SD” value ([1]; 10^-3 M) was 68.20±1.69%, the “AChE (Electrophorus electricus) inhibitory activity (%) ± SD” value ([1]; 10^-4 M) was 37.33 ± 1.03% and the “AChE (Human) inhibitory activity (%) ± SD” value (AChE (Human); 10^-3 M) was 64.93±1.21%. The “AChE (Human) inhibitory activity (%) ± SD” value (AChE (Human); 10^-4 M) was 40.70 ± 1.00%, the “BChE (Equine) inhibitory activity (%) ± SD” value (BChE (Equine); 10^-3 M) was 91.26±3.42% and the “BChE (Equine) inhibitory activity (%) ± SD” value (BChE (Equine); 10^-4 M) was 45.30 ± 1.88%. The “BChE (Human) inhibitory activity (%) ± SD” value (BChE (Human); 10^-3 M) was 94.18±2.62% and the “BChE (Human) inhibitory activity (%) ± SD” value (BChE (Human); 10^-4 M) was 43.29 ± 1.17%.

For `O=C(CSC(=S)N1CCN(c2ccccc2)CC1)Nc1c2ccccc2nc2ccccc12` [Compound 4f, 2-(9-Acridinylamino)-2-oxoethyl 4-phenylpiperazine-1-carbodithioate], the “AChE (Electrophorus electricus) inhibitory activity (%) ± SD” value ([1]; 10^-3 M) was 77.65±2.42%, the “AChE (Electrophorus electricus) inhibitory activity (%) ± SD” value ([1]; 10^-4 M) was 4.70 ± 0.27% and the “AChE (Human) inhibitory activity (%) ± SD” value (AChE (Human); 10^-3 M) was 74.28±1.04%. For the same molecule, the “AChE (Human) inhibitory activity (%) ± SD” value (AChE (Human); 10^-4 M) was 8.71 ± 0.62%, the “BChE (Equine) inhibitory activity (%) ± SD” value (BChE (Equine); 10^-3 M) was 77.60±1.60% and the “BChE (Equine) inhibitory activity (%) ± SD” value (BChE (Equine); 10^-4 M) was 12.80 ± 0.87%. For the same molecule, the “BChE (Human) inhibitory activity (%) ± SD” value (BChE (Human); 10^-3 M) was 75.23±1.25% and the “BChE (Human) inhibitory activity (%) ± SD” value (BChE (Human); 10^-4 M) was 15.67 ± 0.79%.
